# In publication PMC3114813 (Environmental Health Perspectives, 2011):
# Entries after “also recorded” stand apart in the source; their conditions may differ. Where two headings read alike, the source gives them in different places.
# Columns and labels:
# MDA-kb2 cells = conditions: for Cytotoxic EC20 (μM) MDA-kb2: EC20 = concentration that produces a 20% effect
# Method: (§1) MDA-kb2 cells are human breast cancer cells stably transfected with a firefly luciferase reporter gene that is driven by an androgen-response element–containing promoter ([Wilson et al. 2002]). Details of the modified assay were published previously ([Ermler et al. 2010]). Briefly, cells were seeded at a concentration of 1 × 10^5 cells/mL in phenol red–free Leibowitz-15 medium (Invitrogen Ltd., Paisley, UK) containing 10% (charcoal-stripped) fetal calf serum (Invitrogen Ltd.) in white luminometer plates and allowed to attach for 24 hr. Cells were then exposed to eight serial dilutions of selected pesticides with or without DHT (0.25 nM). After 24 hr, luciferase activity was determined with SteadyGlo assay reagent (Promega UK Ltd., Southampton, Hampshire, UK) and measured in a plate reader (FLUOstar Optima, BMG Labtech GmbH, Offenburg, Germany). […] All concentrations were tested in duplicate over two plates, and each pesticide was measured at least twice in separate experiments. For comparative purposes, luminescence was normalized to DHT alone at coexposure concentration (maximum response, 100%) and solvent-only (ethanol) controls (minimum response, 0%). […] Pesticides were initially tested over a concentration range of 0.64 nM–50 μM (5× dilutions) as a range-finding exercise. Subsequently, the concentration ranges were modified to reflect the potency and toxicity of each individual compound. […] Sixty percent of the pesticides were repeat tested using the same product but with new stock solutions and by a different experimenter.
# (§2) To analyze antiandrogenic action, raw luminescence readings were normalized on a plate-by-plate basis to the means of the positive DHT controls (n = 8) and the solvent controls (n = 8) ([Ermler et al. 2010]). […] Specifically, a variety of nonlinear regression models were fitted independently to the same data set, and the best-fitting model was selected using a statistical goodness-of-fit criterion. […] Data considered to be statistically significant at p < 0.05 were analyzed using the best-fit approach as described above. All statistical analysis was performed using SAS statistical software (SAS Institute Inc., Cary, NC, USA). From the best-fitting model, we derived inhibitory concentrations for antiandrogenicity and effect concentrations for cytotoxicity.
# yeast = test: YAS, cytotoxicity (turbidity at 620 nm); type: cell-based; conditions: for Cytotoxic EC20 (μM) YAS: EC20 = concentration that produces a 20% effect, yeast turbidity
# Method: The methods for the YAS have been described previously ([Sohoni and Sumpter 1998]). Briefly, stimulation of the transfected AR causes a color change in the media, which is measured by absorbance at 540 nm (Labsystems Multiskan Multisoft, Vienna, VA, USA). Plates were also measured at 620 nm to measure cell growth (turbidity) to check for any cytotoxic effects that may have occurred. Pesticides were coincubated with DHT (6.4 nM). […] Incubation time was 53 hr at 28°C. […] Pesticide serial dilutions were tested in duplicate over two plates and were tested in two separate experiments.
# androgen receptor (AR) [1] = molecular target: T1, androgen receptor (AR) (Homo sapiens, UniProt P10275, Q868H); test: cell-based; conditions: for IC20: MDA-kb2, read-out: Antiandrogen IC20 (μM) MDA-kb2
# T1 construct: MDA-kb2 cells are human breast cancer cells stably transfected with a firefly luciferase reporter gene; endogenous in cells; host or cells: MDA-kb2 (human breast cancer cells)
# T1 sequence (P10275 1-920 Q868H): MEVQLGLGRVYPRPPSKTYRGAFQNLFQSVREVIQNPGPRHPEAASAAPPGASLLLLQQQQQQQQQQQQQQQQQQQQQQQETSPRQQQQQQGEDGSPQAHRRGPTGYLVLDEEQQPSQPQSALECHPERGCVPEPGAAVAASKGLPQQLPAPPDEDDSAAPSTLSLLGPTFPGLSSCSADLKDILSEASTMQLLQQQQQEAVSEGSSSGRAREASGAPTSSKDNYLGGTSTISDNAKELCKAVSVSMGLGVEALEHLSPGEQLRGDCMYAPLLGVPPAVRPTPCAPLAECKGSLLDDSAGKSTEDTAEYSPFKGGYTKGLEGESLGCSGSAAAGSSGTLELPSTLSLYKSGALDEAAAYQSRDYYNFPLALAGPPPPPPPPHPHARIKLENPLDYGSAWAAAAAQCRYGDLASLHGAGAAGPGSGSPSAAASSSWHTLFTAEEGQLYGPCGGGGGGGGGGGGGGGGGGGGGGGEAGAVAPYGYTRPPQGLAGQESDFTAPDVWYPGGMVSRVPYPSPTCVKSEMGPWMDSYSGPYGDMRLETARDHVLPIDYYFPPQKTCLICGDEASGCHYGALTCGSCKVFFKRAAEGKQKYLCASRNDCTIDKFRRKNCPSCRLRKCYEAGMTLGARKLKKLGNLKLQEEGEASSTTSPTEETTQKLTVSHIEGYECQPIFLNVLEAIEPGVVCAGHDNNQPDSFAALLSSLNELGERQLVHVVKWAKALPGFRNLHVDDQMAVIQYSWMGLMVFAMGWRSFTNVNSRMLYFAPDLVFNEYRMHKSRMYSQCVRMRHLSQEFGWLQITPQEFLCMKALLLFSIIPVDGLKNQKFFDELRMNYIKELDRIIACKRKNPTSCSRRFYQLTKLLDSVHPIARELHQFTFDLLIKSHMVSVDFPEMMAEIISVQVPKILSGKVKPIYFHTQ
# Method: as §1, §2
# androgen receptor (AR) [2] = molecular target: T1, androgen receptor (AR); type: cell-based
# Method: as §1, §2
# [3] = androgenic in the absence of DHT, Neg = no response was observed
# [4] = total exposure score / IC20 (MDA-kb2), recalculated using experimental data
compound,measurement,setting,value
Cc1c(COC(=O)[C@@H]2[C@H](/C=C(\Cl)C(F)(F)F)C2(C)C)cccc1-c1ccccc1 (racemic) [Bifenthrin],Cytotoxicity in the MDA-kb2 assay (in words),MDA-kb2 cells,cytotoxic
same,Cytotoxic EC20 (μM) MDA-kb2,MDA-kb2 cells,22.2 µM
same,Cytotoxic EC20 (μM) YAS,yeast,> 200 µM
COP(=S)(OC)SCn1nnc2ccccc2c1=O [Azinphos-methyl],Antiandrogenic activity in the MDA-kb2 assay (in words),androgen receptor (AR) [1]; MDA-kb2 / 'our assay',antiandrogenic; also recorded: in vitro AR antagonists
same,Cytotoxic EC20 (μM) MDA-kb2,MDA-kb2 cells,33.9 µM
same,Cytotoxic EC20 (μM) YAS,yeast,> 150 µM
same,Androgen EC20 (μM) MDA-kb2,androgen receptor (AR) [2]; [3],Neg
CO/C=C(/C(=O)OC)c1ccccc1Oc1cc(Oc2ccccc2C#N)ncn1 [Azoxystrobin],Antiandrogen IC20 (μM) MDA-kb2,androgen receptor (AR) [1],Neg
same,Cytotoxic EC20 (μM) MDA-kb2,MDA-kb2 cells,2.9 µM
same,Androgen EC20 (μM) MDA-kb2,androgen receptor (AR) [2]; [3],Neg
CC(C)OC(=O)C(O)(c1ccc(Br)cc1)c1ccc(Br)cc1 [Bromopropylate],IC20,androgen receptor (AR) [1],0.54 µM
same,Antiandrogenic activity in the MDA-kb2 assay (in words),androgen receptor (AR) [1]; MDA-kb2 / 'our assay',in vitro AR antagonists
same,ERR (environmental relevance ratio),androgen receptor (AR) [1]; [4],24.1
same,Cytotoxic EC20 (μM) MDA-kb2,MDA-kb2 cells,27.2 µM
same,Androgen EC20 (μM) MDA-kb2,androgen receptor (AR) [2]; [3],Neg
CC(C)OC(=O)Nc1cccc(Cl)c1 [Chlorpropham],Cytotoxic EC20 (μM) MDA-kb2,MDA-kb2 cells,> 50 µM
same,Cytotoxic EC20 (μM) YAS,yeast,> 40 µM
Cc1cc(C2CC2)nc(Nc2ccccc2)n1 [Cyprodinil],Cytotoxic EC20 (μM) MDA-kb2,MDA-kb2 cells,> 50 µM
OC(c1ccc(Cl)cc1)(c1ccc(Cl)cc1)C(Cl)(Cl)Cl [Dicofol],Cytotoxic EC20 (μM) MDA-kb2,MDA-kb2 cells,29.0 µM
CC1COC(Cn2cncn2)(c2ccc(Oc3ccc(Cl)cc3)cc2Cl)O1 (stereo not shown) [Difenoconazole],Cytotoxic EC20 (μM) MDA-kb2,MDA-kb2 cells,2.91 µM
same,Cytotoxic EC20 (μM) YAS,yeast,0.109 µM
same,Cytotoxicity in the YAS assay (in words),yeast,cytotoxic
O=S1OCC2C(CO1)C1(Cl)C(Cl)=C(Cl)C2(Cl)C1(Cl)Cl (stereo not shown) [Endosulfan],Antiandrogenic activity in the MDA-kb2 assay (in words),androgen receptor (AR) [1],in vitro AR antagonists
same,ERR (environmental relevance ratio),androgen receptor (AR) [1],3.1
same,IC20,androgen receptor (AR) [1],6.05 µM
same,Cytotoxic EC20 (μM) MDA-kb2,MDA-kb2 cells,33.8 µM
same,Androgen EC20 (μM) MDA-kb2,androgen receptor (AR) [2],Neg
COP(=S)(OC)Oc1ccc([N+](=O)[O-])c(C)c1 [Fenitrothion],Cytotoxic EC20 (μM) MDA-kb2,MDA-kb2 cells,> 50 µM
COC(=O)N(C(=O)N1CO[C@@]2(C(=O)OC)Cc3cc(Cl)ccc3C2=N1)c1ccc(OC(F)(F)F)cc1 [Indoxacarb],Antiandrogen IC20 (μM) MDA-kb2,androgen receptor (AR) [1],Neg
same,Cytotoxic EC20 (μM) MDA-kb2,MDA-kb2 cells,11.3 µM
same,Androgen EC20 (μM) MDA-kb2,androgen receptor (AR) [2]; [3],Neg
C#CCOc1ccc(CCNC(=O)C(OCC#C)c2ccc(Cl)cc2)cc1OC (stereo not shown) [Mandipropamid],Antiandrogen IC20 (μM) MDA-kb2,androgen receptor (AR) [1],Neg
same,Cytotoxic EC20 (μM) MDA-kb2,MDA-kb2 cells,8.92 µM
same,Androgen EC20 (μM) MDA-kb2,androgen receptor (AR) [2]; [3],Neg
CNC(=O)Oc1cc(C)c(SC)c(C)c1 [Methiocarb],IC20,androgen receptor (AR) [1],6.82 µM
same,ERR (environmental relevance ratio),androgen receptor (AR) [1]; [4],2.5
same,Cytotoxic EC20 (μM) MDA-kb2,MDA-kb2 cells,> 46 µM
same,Androgen EC20 (μM) MDA-kb2,androgen receptor (AR) [2]; [3],Neg
O=C(NC(=O)c1c(F)cccc1F)Nc1ccc(OC(F)(F)C(F)OC(F)(F)F)c(Cl)c1 (stereo not shown) [Novaluron],Cytotoxic EC20 (μM) MDA-kb2,MDA-kb2 cells,> 50 µM
Oc1ccccc1-c1ccccc1 [O-Phenylphenol],Cytotoxic EC20 (μM) MDA-kb2,MDA-kb2 cells,> 50 µM
CCCSP(=O)(OCC)Oc1ccc(Br)cc1Cl (stereo not shown) [Profenofos],Cytotoxic EC20 (μM) MDA-kb2,MDA-kb2 cells,8.61 µM
C#CCOS(=O)OC1CCCCC1Oc1ccc(C(C)(C)C)cc1 (stereo not shown) [Propargite],Cytotoxic EC20 (μM) MDA-kb2,MDA-kb2 cells,0.487 µM
COC(=O)N(OC)c1ccccc1COc1ccn(-c2ccc(Cl)cc2)n1 [Pyraclostrobin],Cytotoxic EC20 (μM) MDA-kb2,MDA-kb2 cells,0.089 µM
Cc1cc(C)nc(Nc2ccccc2)n1 [Pyrimethanil],Cytotoxic EC20 (μM) MDA-kb2,MDA-kb2 cells,> 125 µM
same,Cytotoxic EC20 (μM) YAS,yeast,167 µM
same,Cytotoxicity in the YAS assay (in words),yeast,cytotoxic
Fc1ccc(Oc2ccnc3cc(Cl)cc(Cl)c23)cc1 [Quinoxyfen],Cytotoxic EC20 (μM) MDA-kb2,MDA-kb2 cells,10.1 µM
same,Cytotoxic EC20 (μM) YAS,yeast,> 75 µM
CCOC(=O)OC1=C(c2cc(C)ccc2C)C(=O)N[C@]12CC[C@@H](OC)CC2 [Spirotetramat],Cytotoxic EC20 (μM) MDA-kb2,MDA-kb2 cells,> 50 µM
CCCN(CC)CC1COC2(CCC(C(C)(C)C)CC2)O1 (stereo not shown) [Spiroxamine],Cytotoxic EC20 (μM) MDA-kb2,MDA-kb2 cells,9.29 µM
C=CC1(C)OC(=O)N(c2cc(Cl)cc(Cl)c2)C1=O (stereo not shown) [Vinclozolin],Cytotoxic EC20 (μM) MDA-kb2,MDA-kb2 cells,> 50 µM
"CC(C)C(=O)Nc1ccc([N+](=O)[O-])c(C(F)(F)F)c1 [flutamide, reference compound]",Cytotoxicity in the MDA-kb2 assay (in words),MDA-kb2 cells,overlap of toxic effects on the cells with antiandrogenic activity
"ClC(Cl)=C(c1ccc(Cl)cc1)c1ccc(Cl)cc1 [p,p′-DDE, p,p′-1,1-bis-(4-chlorophenyl)-2,2-dichloroethene]",Cytotoxic EC20 (μM) MDA-kb2,MDA-kb2 cells,> 50 µM
CC1(C)C(/C=C(\Cl)C(F)(F)F)C1C(=O)OC(C#N)c1cccc(Oc2ccccc2)c1 (stereo not shown) [λ-Cyhalothrin],Cytotoxic EC20 (μM) MDA-kb2,MDA-kb2 cells,51.4 µM
same,Cytotoxic EC20 (μM) YAS,yeast,> 200 µM
Spinosad,Antiandrogen IC20 (μM) MDA-kb2,androgen receptor (AR) [1],Neg
same,Cytotoxic EC20 (μM) MDA-kb2,MDA-kb2 cells,13.1 µM
same,Androgen EC20 (μM) MDA-kb2,androgen receptor (AR) [2]; [3],Neg
